Results published in US11945794B2, “Nuclear transport modulators and uses thereof” (Karyopharm Therapeutics Inc., priority 2013, dated 2024).

Key:
Assay in all cases: MTT cell proliferation assay
Format in all cases: cell-based
[1] = test system: MM1S cells; settings: Homo sapiens, MM1.S, approximately 64-72 hours
Protocol: (§1) The MTT cell proliferation assay was used to study the cytotoxic properties of the compounds. The assay was performed according to the method described by Roche Molecular Biochemicals, with minor modifications. The assay is based on the cleavage of the tetrazolium salt, MTT, in the presence of an electron-coupling reagent. The water-insoluble formazan salt produced must be solubilized in an additional step. Cells grown in a 96-well tissue culture plate were incubated with the MTT solution for approximately 4 hours. After this incubation period, a water-insoluble formazan dye formed. After solubilization, the formazan dye was quantitated using a scanning multi-well spectrophotometer (ELISA reader). […] The cells were seeded at 5,000-10,000 cells in each well of 96-well plate in 100 μL of fresh culture medium and were allowed to attach overnight. The stock solutions of the compounds were diluted in 100 μL cell culture medium to obtain eight concentrations of each test compound, ranging from 1 nM to 30 μM. […] All optical densities were measured at 490 nm using a Vmax Kinetic Microplate Reader (Molecular Devices). In most cases, the assay was performed in duplicate and the results were presented as a mean percent inhibition to the negative control±SE. The following formula was used to calculate the percent of inhibition: Inhibition (%)=(1−(ODo/OD))×100.
(§2) The compounds were tested against Z138, MM1S and 3T3 cells. The Z138 cell line is a mature B-cell acute lymphoblastic leukemia cell line derived from a patient with chronic lumphocytic leukemia. The MM1S cell line was established from the peripheral blood of a human multiple myeloma patient. 3T3 cells are standard fibroblast cells; they were originally isolated from Swiss mouse embryo tissue.

[2] = test system: 3T3 cells; settings: Mus musculus, NIH3T3, approximately 64-72 hours
Protocol: as §1, §2

[3] = test system: Z138 cells; settings: Homo sapiens, Z-138, approximately 64-72 hours
Protocol: as §1, §2

Structure (SMILES)	IC50 [1] [µM]	IC50 [2] [µM]	IC50 [3] [µM]
CC(C)OC(=O)/C(=C/n1cnc(-c2cc(C(F)(F)F)cc(C(F)(F)F)c2)n1)c1ccncc1 [Compound 106, isopropyl (E)-3-(3-(3,5-bis(trifluoromethyl)phenyl)-1H-1,2,4-triazol-1-yl)-2-(pyridin-4-yl)acrylate]	0.1 to 5		
CN(C)C(=O)/C(=C/n1cnc(-c2cc(C(F)(F)F)cc(C(F)(F)F)c2)n1)c1cccnc1 [Compound 112, (E)-3-(3-(3,5-bis(trifluoromethyl)phenyl)-1H-1,2,4-triazol-1-yl)-N,N-dimethyl-2-(pyridin-3-yl)acrylamide]	> 30		
CC(C)OC(=O)/C(=C/n1cnc(-c2cc(C(F)(F)F)cc(C(F)(F)F)c2)n1)c1ccoc1 [Compound 122, isopropyl (E)-3-(3-(3,5-bis (trifluoromethyl)phenyl)-1H-1,2,4-triazol-1-yl)-2-(furan-3-yl) acrylate]	0.1 to 5		
Cn1cc(/C(=C\n2cnc(-c3cc(C(F)(F)F)cc(C(F)(F)F)c3)n2)C(=O)O)cn1 [Compound 131, (E)-3-(3-(3,5-bis(trifluoromethyl)phenyl)-1H-1,2,4-triazol-1-yl)-2-(1-methyl-1H-pyrazol-4-yl)acrylic acid]	0.1 to 5		
O=C(O)/C(=C/n1cnc(-c2cc(C(F)(F)F)cc(C(F)(F)F)c2)n1)c1cccnc1 [Compound 103, (E)-3-(3-(3,5-bis(trifluoromethyl)phenyl)-1H-1,2,4-triazol-1-yl)-2-(pyridin-3-yl)acrylic acid]	> 30	> 30	> 30
Cc1noc(C)c1/C(=C\n1cnc(-c2cc(C(F)(F)F)cc(C(F)(F)F)c2)n1)C(=O)O [Compound 117, (E)-3-(3-(3,5-bis(trifluoromethyl)phenyl)-1H-1,2,4-triazol-1-yl)-2-(3,5-dimethylisoxazol-4-yl) acrylic acid]	> 30		
O=C(O)/C(=C/n1cnc(-c2cc(C(F)(F)F)cc(C(F)(F)F)c2)n1)c1ccoc1 [Compound 128, (E)-3-(3-(3,5-bis(trifluoromethyl)phenyl)-1H-1,2,4-triazol-1-yl)-2-(furan-3-yl) acrylic acid]	> 30		
COc1ccc(/C(=C\n2cnc(-c3cc(C(F)(F)F)cc(C(F)(F)F)c3)n2)C(=O)O)cn1 [Compound 121, (E)-3-(3-(3,5-bis(trifluoromethyl)phenyl)-1H-1,2,4-triazol-1-yl)-2-(6-methoxypyridin-3-yl) acrylic acid]	> 30		
O=C(O)/C(=C/n1cnc(-c2cc(C(F)(F)F)cc(C(F)(F)F)c2)n1)c1cncnc1 [Compound 123, (E)-3-(3-(3,5-bis(trifluoromethyl)phenyl)-1H-1,2,4-triazol-1-yl)-2-(pyrimidin-5-yl) acrylic acid]	> 30		
NC(=O)/C(=C/n1cnc(-c2cc(C(F)(F)F)cc(C(F)(F)F)c2)n1)c1ccoc1 [Compound 129, (E)-3-(3-(3,5-bis(trifluoromethyl)phenyl)-1H-1,2,4-triazol-1-yl)-2-(furan-3-yl) acrylamide]	0.1 to 5		
O=C(O)/C(=C/n1cnc(-c2cc(C(F)(F)F)cc(C(F)(F)F)c2)n1)c1cncc(F)c1 [Compound 125, (E)-3-(3-(3,5-bis(trifluoromethyl)phenyl)-1H-1,2,4-triazol-1-yl)-2-(5-fluoropyridin-3-yl)acrylic acid]	> 30		
N#C/C(=C/n1cnc(-c2cc(C(F)(F)F)cc(C(F)(F)F)c2)n1)c1nccs1 [Compound 110, (Z)-3-(3-(3,5-bis(trifluoromethyl)phenyl)-1H-1,2,4-triazol-1-yl)-2-(thiazol-2-yl)acrylonitrile]	0.1 to 5		
COc1ccc(/C(=C\n2cnc(-c3cc(C(F)(F)F)cc(C(F)(F)F)c3)n2)C(N)=O)cn1 [Compound 127, (E)-3-(3-(3,5-bis-(trifluoromethyl)-phenyl)-1H-1,2,4-triazol-1-yl)-2-(6-methoxypyridin-3-yl)acrylamide]	0.1 to 5		
O=C(O)/C(=C/n1cnc(-c2cc(C(F)(F)F)cc(C(F)(F)F)c2)n1)c1ccncc1 [Compound 107, (E)-3-(3-(3,5-bis(trifluoromethyl)phenyl)-1H-1,2,4-triazol-1-yl)-2-(pyridin-4-yl)acrylic acid]	5 to 30		
CC(C)OC(=O)/C(=C/n1cnc(-c2cc(C(F)(F)F)cc(C(F)(F)F)c2)n1)c1nccs1 [Compound 109, isopropyl (Z)-3-(3-(3,5-bis(trifluoromethyl)phenyl)-1H-1,2,4-triazol-1-yl)-2-(thiazol-2-yl)acrylate]	0.1 to 5		

The next lines start with results.

IC50 [1] [µM]	Structure (SMILES)	IC50 [2] [µM]	IC50 [3] [µM]
< 0.1	NC(=O)/C(=C/n1cnc(-c2cc(C(F)(F)F)cc(C(F)(F)F)c2)n1)c1cccnc1F [Compound 135, (E)-3-(3-(3,5-bis(trifluoromethyl)phenyl)-1H-1,2,4-triazol-1-yl)-2-(2-fluoropyridin-3-yl)acrylamide]	> 30	0.1 to 5
0.1 to 5	NC(=O)/C(=C/n1cnc(-c2cc(C(F)(F)F)cc(C(F)(F)F)c2)n1)c1ccccc1 [Compound 146, (E)-3-(3-(3,5-bis(trifluoromethyl)phenyl)-1H-1,2,4-triazol-1-yl)-2-phenylacrylamide]	> 30	0.1 to 5
0.1 to 5	NC(=O)/C(=C/n1cnc(-c2cc(C(F)(F)F)cc(C(F)(F)F)c2)n1)c1cccnc1Cl [Compound 144, (E)-3-(3-(3,5-bis(trifluoromethyl)phenyl)-1H-1,2,4-triazol-1-yl)-2-(2-chloropyridin-3-yl)acrylamide]	> 30	0.1 to 5
0.1 to 5	NC(=O)/C(=C/n1cnc(-c2cc(C(F)(F)F)cc(C(F)(F)F)c2)n1)c1ccc(F)nc1 [Compound 139, (E)-3-(3-(3,5-bis(trifluoromethyl)phenyl)-1H-1,2,4-triazol-1-yl)-2-(6-fluoropyridin-3-yl)acrylamide]	> 30	0.1 to 5
0.1 to 5	NC(=O)/C(=C/n1cnc(-c2cc(C(F)(F)F)cc(C(F)(F)F)c2)n1)c1ccc2cn[nH]c2c1 [Compound 152, (E)-3-(3-(3,5-bis(trifluoromethyl)phenyl)-1H-1,2,4-triazol-1-yl)-2-(1H-indazol-6-yl)acrylamide]	> 30	0.1 to 5
< 0.1	NC(=O)/C(=C/n1cnc(-c2cc(C(F)(F)F)cc(C(F)(F)F)c2)n1)c1cccc(F)n1 [Compound 134, (E)-3-(3-(3,5-bis(trifluoromethyl)phenyl)-1H-1,2,4-triazol-1-yl)-2-(6-fluoropyridin-2-yl)acrylamide]	0.1 to 5	0.1 to 5
0.1 to 5	NC(=O)/C(=C\n1cnc(-c2cc(C(F)(F)F)cc(C(F)(F)F)c2)n1)c1cccnc1F [Compound 157, (Z)-3-(3-(3,5-bis(trifluoromethyl)phenyl)-1H-1,2,4-triazol-1-yl)-2-(2-fluoropyridin-3-yl)acrylamide]	0.1 to 5	0.1 to 5
0.1 to 5	NC(=O)/C(=C\n1cnc(-c2cc(C(F)(F)F)cc(C(F)(F)F)c2)n1)c1ccc(F)nc1 [Compound 154, (Z)-3-(3-(3,5-bis(trifluoromethyl)phenyl)-1H-1,2,4-triazol-1-yl)-2-(6-fluoropyridin-3-yl)acrylamide]		
5 to 30	NC(=O)/C(=C/n1cnc(-c2cc(C(F)(F)F)cc(C(F)(F)F)c2)n1)c1ccc(-c2ccccc2)c(F)c1 [Compound 150, (E)-3-(3-(3,5-bis(trifluoromethyl)phenyl)-1H-1,2,4-triazol-1-yl)-2-(2-fluorobiphenyl-4-yl)acrylamide]	> 30	5 to 30
